Assay results published in ChEMBL document CHEMBL4052645, “Discovery of potent and efficacious pyrrolopyridazines as dual JAK1/3 inhibitors” (Bioorg Med Chem Lett, 2017).

Tests used:
[1] = target: Cyclin-dependent kinase-like 1 (Homo sapiens) (UniProt Q00532); experiment: Inhibition of wild-type human full length CDKL1 (M1 to I358 residues) expressed in mammalian expression system assessed as residual activity at 50 nM by Kinomescan method relative to control
[2] = target: Casein kinase I isoform delta (Homo sapiens) (UniProt P48730); experiment: Inhibition of wild-type human full length CK1D (M1 to K409 residues) expressed in bacterial expression system assessed as residual activity at 50 nM by Kinomescan method relative to control
[3] = target: Insulin receptor (Homo sapiens) (UniProt P06213); experiment: Inhibition of wild-type human partial length INSR (P997 to E1318 residues) expressed in mammalian expression system assessed as residual activity at 50 nM by Kinomescan method relative to control
[4] = target: Mitogen-activated protein kinase kinase kinase 9 (Homo sapiens) (UniProt P80192); experiment: Inhibition of wild-type human partial length MLK1 (V88 to W426 residues) expressed in bacterial expression system assessed as residual activity at 50 nM by Kinomescan method relative to control
[5] = target: Serine/threonine-protein kinase 32C (Homo sapiens) (UniProt Q86UX6); experiment: Inhibition of wild-type human partial length YANK3 (M68 to G486 residues) expressed in bacterial expression system assessed as residual activity at 50 nM by Kinomescan method relative to control
[6] = target: Activin receptor type-2B (Homo sapiens) (UniProt Q13705); experiment: Inhibition of wild-type human ACTR2B (H169 to D504 residues) expressed in bacterial expression system assessed as residual activity at 50 nM by Kinomescan method relative to control
[7] = target: STE20/SPS1-related proline-alanine-rich protein kinase (Homo sapiens) (UniProt Q9UEW8); experiment: Inhibition of wild-type human partial length STLK3 (P43 to I357 residues) expressed in mammalian expression system assessed as residual activity at 50 nM by Kinomescan method relative to control
[8] = target: Serine/threonine-protein kinase PLK1 (Homo sapiens) (UniProt P53350); experiment: Inhibition of wild-type human partial length PLK1 (A33 to F325 residues) expressed in mammalian expression system assessed as residual activity at 50 nM by Kinomescan method relative to control
[9] = target: Serine/threonine-protein kinase 35 (Homo sapiens) (UniProt Q8TDR2); experiment: Inhibition of wild-type human partial length CLIK1 (G182 to A534 residues) expressed in bacterial expression system assessed as residual activity at 50 nM by Kinomescan method relative to control
[10] = target: Mitogen-activated protein kinase 3 (Homo sapiens) (UniProt P27361); experiment: Inhibition of wild-type human full length ERK1 (M1 to P379 residues) expressed in bacterial expression system assessed as residual activity at 50 nM by Kinomescan method relative to control
[11] = target: Mitogen-activated protein kinase 15 (Homo sapiens) (UniProt Q8TD08); experiment: Inhibition of wild-type human partial length ERK7 (M1 to P437 residues) expressed in bacterial expression system assessed as residual activity at 50 nM by Kinomescan method relative to control
[12] = target: Tyrosine-protein kinase Fyn (Homo sapiens) (UniProt P06241); experiment: Inhibition of wild-type human partial length FYN (T243 to L534 residues) expressed in bacterial expression system assessed as residual activity at 50 nM by Kinomescan method relative to control
[13] = target: Serine/threonine-protein kinase PAK 1 (Homo sapiens) (UniProt Q13153); experiment: Inhibition of wild-type human partial length PAK1 (S149 to H545 residues) expressed in bacterial expression system assessed as residual activity at 50 nM by Kinomescan method relative to control
[14] = target: Phosphatidylinositol 4-phosphate 3-kinase C2 domain-containing subunit beta (Homo sapiens) (UniProt O00750); experiment: Inhibition of wild-type human partial length PI3KC2B (M1 to L1634 residues) expressed in mammalian expression system assessed as residual activity at 50 nM by Kinomescan method relative to control
[15] = target: Casein kinase I isoform gamma-3 (Homo sapiens) (UniProt Q9Y6M4); experiment: Inhibition of wild-type human full length CK1G3 (M1 to K447 residues) expressed in bacterial expression system assessed as residual activity at 50 nM by Kinomescan method relative to control
[16] = target: cAMP-dependent protein kinase catalytic subunit PRKX (Homo sapiens) (UniProt P51817); experiment: Inhibition of wild-type human partial length PRKX (M1 to F358 residues) expressed in bacterial expression system assessed as residual activity at 50 nM by Kinomescan method relative to control
[17] = target: Serine/threonine-protein kinase D1 (Homo sapiens) (UniProt Q15139); experiment: Inhibition of wild-type human partial length PKD1 (G551 to E870 residues) expressed in bacterial expression system assessed as residual activity at 50 nM by Kinomescan method relative to control
[18] = target: Serine/threonine-protein kinase 17A (Homo sapiens) (UniProt Q9UEE5); experiment: Inhibition of wild-type human partial length DRAK1 (R32 to E363 residues) expressed in bacterial expression system assessed as residual activity at 50 nM by Kinomescan method relative to control
[19] = target: Serine/threonine-protein kinase RIO3 (Homo sapiens) (UniProt O14730); experiment: Inhibition of full length human RIOK3 (M1 to E519 residues) expressed in bacterial expression system assessed as residual activity at 50 nM by KINOMEscan assay relative to control
[20] = target: Serine/threonine-protein kinase tousled-like 1 (Homo sapiens) (UniProt Q9UKI8); experiment: Inhibition of wild-type human partial length TLK1 (K447 to A754 residues) expressed in bacterial expression system assessed as residual activity at 50 nM by Kinomescan method relative to control
[21] = target: Cytoplasmic tyrosine-protein kinase BMX (Homo sapiens) (UniProt P51813); experiment: Inhibition of wild-type human full length BMX (M1 to H675 residues) expressed in bacterial expression system assessed as residual activity at 50 nM by Kinomescan method relative to control
[22] = target: Serine/threonine-protein kinase PAK 3 (Homo sapiens) (UniProt O75914); experiment: Inhibition of wild-type human full length PAK3 (M1 to R544 residues) expressed in bacterial expression system assessed as residual activity at 50 nM by Kinomescan method relative to control
[23] = target: Serine/threonine-protein kinase BRSK2 (Homo sapiens) (UniProt Q8IWQ3); experiment: Inhibition of wild-type human full length BRSK2 (M1 to L674 residues) expressed in bacterial expression system assessed as residual activity at 50 nM by Kinomescan method relative to control
[24] = target: Tyrosine-protein kinase BTK (Homo sapiens) (UniProt Q06187); experiment: Inhibition of wild-type human full length BTK (M1 to S659 residues) expressed in mammalian expression system assessed as residual activity at 50 nM by Kinomescan method relative to control
[25] = target: Tyrosine-protein kinase JAK1 (Homo sapiens, UniProt P23458); experiment: Inhibition of GST-tagged JAK1 (unknown origin) after 3 hrs by Caliper assay

Sequence of cAMP-dependent protein kinase catalytic subunit PRKX (Homo sapiens) (P51817 whole entry, the tested form may be a part): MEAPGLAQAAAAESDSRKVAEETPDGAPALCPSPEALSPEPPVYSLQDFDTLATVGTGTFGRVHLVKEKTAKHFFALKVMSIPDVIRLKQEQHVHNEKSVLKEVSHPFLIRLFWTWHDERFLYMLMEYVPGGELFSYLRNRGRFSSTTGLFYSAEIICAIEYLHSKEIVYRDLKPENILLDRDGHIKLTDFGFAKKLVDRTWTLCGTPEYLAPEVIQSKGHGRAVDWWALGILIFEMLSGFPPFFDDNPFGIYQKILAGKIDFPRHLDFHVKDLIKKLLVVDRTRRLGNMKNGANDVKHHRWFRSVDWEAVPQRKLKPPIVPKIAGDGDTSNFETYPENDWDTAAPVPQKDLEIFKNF
Sequence of Serine/threonine-protein kinase PLK1 (Homo sapiens) (P53350 whole entry, the tested form may be a part): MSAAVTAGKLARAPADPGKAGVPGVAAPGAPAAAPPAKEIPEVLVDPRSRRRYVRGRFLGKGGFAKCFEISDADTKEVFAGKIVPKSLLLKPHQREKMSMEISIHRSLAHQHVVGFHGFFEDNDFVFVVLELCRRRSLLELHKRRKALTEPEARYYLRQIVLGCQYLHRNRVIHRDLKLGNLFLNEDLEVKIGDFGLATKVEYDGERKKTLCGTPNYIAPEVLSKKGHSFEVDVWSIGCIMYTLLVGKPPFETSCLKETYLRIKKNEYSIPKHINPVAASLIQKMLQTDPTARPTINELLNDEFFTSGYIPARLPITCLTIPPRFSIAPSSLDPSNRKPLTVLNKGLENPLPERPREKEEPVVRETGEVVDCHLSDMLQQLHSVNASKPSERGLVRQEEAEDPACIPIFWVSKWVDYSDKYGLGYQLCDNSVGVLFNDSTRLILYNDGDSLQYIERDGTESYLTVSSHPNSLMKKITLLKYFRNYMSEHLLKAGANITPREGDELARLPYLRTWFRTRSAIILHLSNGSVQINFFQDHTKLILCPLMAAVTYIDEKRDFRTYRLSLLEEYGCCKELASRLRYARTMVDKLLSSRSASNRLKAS
Sequence of Mitogen-activated protein kinase 15 (Homo sapiens) (Q8TD08 whole entry, the tested form may be a part): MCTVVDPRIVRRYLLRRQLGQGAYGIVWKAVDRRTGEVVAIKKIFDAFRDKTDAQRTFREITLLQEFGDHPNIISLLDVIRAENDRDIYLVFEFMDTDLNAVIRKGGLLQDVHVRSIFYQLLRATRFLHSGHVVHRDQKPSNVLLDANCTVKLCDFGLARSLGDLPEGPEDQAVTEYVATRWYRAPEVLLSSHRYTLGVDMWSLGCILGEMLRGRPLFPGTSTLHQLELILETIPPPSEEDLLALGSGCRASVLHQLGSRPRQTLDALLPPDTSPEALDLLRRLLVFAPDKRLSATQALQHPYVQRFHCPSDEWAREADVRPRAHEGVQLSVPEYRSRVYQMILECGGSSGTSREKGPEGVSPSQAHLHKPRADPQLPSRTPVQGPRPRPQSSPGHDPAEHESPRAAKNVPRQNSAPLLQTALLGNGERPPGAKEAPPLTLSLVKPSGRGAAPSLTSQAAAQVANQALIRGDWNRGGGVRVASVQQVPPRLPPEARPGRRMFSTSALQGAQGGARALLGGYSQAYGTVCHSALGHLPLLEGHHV
Sequence of Serine/threonine-protein kinase tousled-like 1 (Homo sapiens) (Q9UKI8 whole entry, the tested form may be a part): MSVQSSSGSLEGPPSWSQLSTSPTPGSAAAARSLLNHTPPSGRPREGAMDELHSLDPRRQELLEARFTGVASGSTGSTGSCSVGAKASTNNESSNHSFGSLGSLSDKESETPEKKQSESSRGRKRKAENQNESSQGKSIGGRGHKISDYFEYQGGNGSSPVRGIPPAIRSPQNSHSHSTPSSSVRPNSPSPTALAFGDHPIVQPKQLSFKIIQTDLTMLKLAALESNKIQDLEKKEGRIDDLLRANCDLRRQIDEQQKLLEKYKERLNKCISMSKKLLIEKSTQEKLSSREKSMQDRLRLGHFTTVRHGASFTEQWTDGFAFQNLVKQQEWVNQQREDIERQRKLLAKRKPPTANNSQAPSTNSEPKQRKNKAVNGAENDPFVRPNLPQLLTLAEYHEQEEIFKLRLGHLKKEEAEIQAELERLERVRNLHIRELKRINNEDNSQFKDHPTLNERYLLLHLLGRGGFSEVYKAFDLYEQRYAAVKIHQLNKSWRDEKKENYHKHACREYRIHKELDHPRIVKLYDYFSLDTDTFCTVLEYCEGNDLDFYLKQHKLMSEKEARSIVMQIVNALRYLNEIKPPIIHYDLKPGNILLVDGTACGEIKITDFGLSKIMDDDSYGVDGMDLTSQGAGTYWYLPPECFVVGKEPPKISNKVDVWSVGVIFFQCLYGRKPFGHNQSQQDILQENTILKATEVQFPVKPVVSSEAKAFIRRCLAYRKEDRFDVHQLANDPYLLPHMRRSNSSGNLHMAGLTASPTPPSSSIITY
Sequence of Casein kinase I isoform delta (Homo sapiens) (P48730 whole entry, looked up, the tested form may be a part, canonical isoform): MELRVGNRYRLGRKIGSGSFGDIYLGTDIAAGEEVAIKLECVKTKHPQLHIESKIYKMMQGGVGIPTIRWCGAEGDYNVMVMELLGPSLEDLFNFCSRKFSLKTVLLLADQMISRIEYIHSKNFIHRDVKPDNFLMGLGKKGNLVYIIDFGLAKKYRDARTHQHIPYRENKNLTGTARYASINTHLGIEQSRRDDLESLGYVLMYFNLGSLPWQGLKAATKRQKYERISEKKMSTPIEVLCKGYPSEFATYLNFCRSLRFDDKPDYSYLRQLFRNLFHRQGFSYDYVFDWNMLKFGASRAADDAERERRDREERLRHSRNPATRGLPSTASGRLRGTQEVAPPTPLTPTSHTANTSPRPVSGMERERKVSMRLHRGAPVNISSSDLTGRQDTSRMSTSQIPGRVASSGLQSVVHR
Sequence of Serine/threonine-protein kinase D1 (Homo sapiens) (Q15139 whole entry, the tested form may be a part): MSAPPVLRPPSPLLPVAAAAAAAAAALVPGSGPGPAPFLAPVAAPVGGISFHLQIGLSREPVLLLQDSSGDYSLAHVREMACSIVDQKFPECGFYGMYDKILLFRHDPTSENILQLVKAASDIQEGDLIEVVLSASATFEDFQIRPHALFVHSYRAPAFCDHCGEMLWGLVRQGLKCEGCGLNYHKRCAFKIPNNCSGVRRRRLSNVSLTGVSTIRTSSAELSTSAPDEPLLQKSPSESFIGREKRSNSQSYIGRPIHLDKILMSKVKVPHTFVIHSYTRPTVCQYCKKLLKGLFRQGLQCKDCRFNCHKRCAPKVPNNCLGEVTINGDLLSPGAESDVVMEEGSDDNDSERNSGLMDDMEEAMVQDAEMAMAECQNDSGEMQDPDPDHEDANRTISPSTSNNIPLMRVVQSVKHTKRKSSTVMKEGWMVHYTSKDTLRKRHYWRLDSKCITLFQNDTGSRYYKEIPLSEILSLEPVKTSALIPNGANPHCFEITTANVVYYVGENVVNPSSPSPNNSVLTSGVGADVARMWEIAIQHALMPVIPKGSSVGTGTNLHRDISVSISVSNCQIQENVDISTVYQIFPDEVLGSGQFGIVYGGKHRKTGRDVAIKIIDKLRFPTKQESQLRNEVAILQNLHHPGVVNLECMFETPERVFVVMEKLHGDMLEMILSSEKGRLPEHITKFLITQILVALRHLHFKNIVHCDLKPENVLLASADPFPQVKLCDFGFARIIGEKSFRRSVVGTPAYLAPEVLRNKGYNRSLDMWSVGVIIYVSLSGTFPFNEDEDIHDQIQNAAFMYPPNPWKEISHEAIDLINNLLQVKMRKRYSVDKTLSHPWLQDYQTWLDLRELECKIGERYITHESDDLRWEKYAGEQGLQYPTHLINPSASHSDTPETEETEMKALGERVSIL
Sequence of Mitogen-activated protein kinase kinase kinase 9 (Homo sapiens) (P80192 whole entry, looked up, the tested form may be a part): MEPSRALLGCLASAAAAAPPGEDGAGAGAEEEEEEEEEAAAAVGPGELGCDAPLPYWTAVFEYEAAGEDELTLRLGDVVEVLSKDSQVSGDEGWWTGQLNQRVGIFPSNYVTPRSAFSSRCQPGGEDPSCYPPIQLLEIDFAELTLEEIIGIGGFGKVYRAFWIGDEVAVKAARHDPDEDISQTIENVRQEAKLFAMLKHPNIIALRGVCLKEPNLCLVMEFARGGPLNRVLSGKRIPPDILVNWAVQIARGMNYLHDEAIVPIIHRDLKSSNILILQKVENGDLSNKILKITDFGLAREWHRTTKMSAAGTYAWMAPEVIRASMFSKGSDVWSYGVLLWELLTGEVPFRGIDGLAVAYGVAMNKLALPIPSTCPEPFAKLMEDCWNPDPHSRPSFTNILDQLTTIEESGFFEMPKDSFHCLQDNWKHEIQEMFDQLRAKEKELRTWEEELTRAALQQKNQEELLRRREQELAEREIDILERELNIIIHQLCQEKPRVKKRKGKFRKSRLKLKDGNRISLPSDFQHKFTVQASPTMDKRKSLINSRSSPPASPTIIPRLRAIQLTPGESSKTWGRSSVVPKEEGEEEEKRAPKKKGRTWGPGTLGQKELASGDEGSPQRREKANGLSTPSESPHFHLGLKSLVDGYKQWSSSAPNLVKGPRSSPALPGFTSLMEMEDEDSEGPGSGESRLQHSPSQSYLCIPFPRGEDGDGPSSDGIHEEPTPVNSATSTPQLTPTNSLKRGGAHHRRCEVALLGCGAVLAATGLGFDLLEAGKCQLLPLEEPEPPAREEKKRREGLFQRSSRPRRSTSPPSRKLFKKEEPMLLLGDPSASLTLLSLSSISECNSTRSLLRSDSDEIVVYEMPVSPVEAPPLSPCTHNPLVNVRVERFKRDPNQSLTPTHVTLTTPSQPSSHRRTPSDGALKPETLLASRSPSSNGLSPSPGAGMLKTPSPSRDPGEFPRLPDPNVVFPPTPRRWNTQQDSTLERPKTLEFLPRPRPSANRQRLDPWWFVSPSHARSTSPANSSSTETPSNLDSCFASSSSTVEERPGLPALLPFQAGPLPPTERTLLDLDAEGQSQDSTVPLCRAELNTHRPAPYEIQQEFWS

| Structure (SMILES) | Activity [1] | Activity [2] | Activity [3] | Activity [4] | Activity [5] | Activity [6] | Activity [7] | Activity [8] | Activity [9] | Activity [10] | Activity [11] | Activity [12] | Activity [13] | Activity [14] | Activity [15] | Activity [16] | Activity [17] | Activity [18] | Activity [19] | Activity [20] | also measured |
| --- | --- | --- | --- | --- | --- | --- | --- | --- | --- | --- | --- | --- | --- | --- | --- | --- | --- | --- | --- | --- | --- |
| COc1ccc(-c2cc3c(N[C@@H]4CC[C@](C)(N)C4(C)C)c(C(N)=O)cnn3c2)cn1 | 100% | 100% | 72% | 90% | 100% | 100% | 84% | 100% | 87% | 100% | 100% | 100% | 96% | 100% | 100% | 100% | 96% | 100% | 66% | 80% | Activity [21]: 64%; Activity [22]: 64%; Activity [23]: 96%; Activity [24]: 100%; IC50 [25]: 1.9 nM |
| CC1(C)[C@H](Nc2c(C(N)=O)cnn3cc(-c4ccccc4)cc23)CC[C@]1(C)N | 97% | 98% | 94% | 78% | 100% | 67% | 100% | 94% | 74% | 93% | 100% | 99% | 88% | 100% | 100% | 59% | 100% | 100% | 3.7% | 61% | Activity [21]: 100%; Activity [22]: 53%; Activity [23]: 100%; Activity [24]: 99%; IC50 [25]: 0.4 nM |
